We go through one molecule from US10106515B2, “1-(cyclopent-2-en-1-yl)-3-(2-hydroxy-3-(arylsulfonyl)phenyl)urea derivatives as CXCR2 inhibitors” (GLAXOSMITHKLINE INTELLECTUAL PROPERTY DEVELOPMENT LIMITED, priority 2014, dated 2018).

Assay [1] concerns upregulation of CD11b in GROα stimulated neutrophils in human whole blood. The experiment in a line: Human whole blood assay (CD11b upregulation). The note with it: Homo sapiens, Neutrophil, inhibition of CD11b upregulation, GROα 33 nM final, flow cytometry, read-out: pIC50 (human whole blood assay) (converted). Format: cell-based. Summed up: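 Heparinised human whole blood preincubated 15 min at 37 °C with compound (10-point, 1:3 dilutions), then stimulated with 33 nM final GROα for 15 min at 37 °C. CD11b-FITC/CD16-PE staining on ice, lysis/fixation, flow cytometry; neutrophils gated by side scatter and CD16.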
For orientation: Flow cytometry measures light scatter and fluorescence of single cells or particles in a stream.

In assay [2] the test system is Rat oligodendrocyte precursor cells (OPCs). The experiment in a line: OPC differentiation assay. The format is cell-based. Particulars: percentage of MBP+ cells. The protocol:
In the oligodendrocyte precursor cell (OPC) in vitro differentiation assay, purified or enriched OPCs are cultured and differentiated into immature oligodendrocytes, mature oligodendrocytes, and myelinating oligodendrocytes (Watkins et al. (2008) Neuron 60:555-569). Specific markers have been identified for each specific stage of OPC differentiation. Myelin basic proteins (MBP), a specific marker for matured and myelinating oligodendrocytes, is used as an indicator for OPC differentiation and maturation (Franklin et al. (2008) J Neurosci, 255 Suppl 1:19-25). The OPC differentiation assay provides a tool to screen the compounds with the potency of promoting OPC differentiation, which is an initial step for downstream remyelination repair in vivo after demyelination occurs in mutiple scelerosis (MS) patients.
Rat oligodendrocyte precursor cells (OPCs) were obtained from P1 pups and were cultured in DMEM/20S medium (DMEM with 20% FBS, 4 mM L-Glutamine, 1 mM sodium pyruvate and penicillin) (Zhang et al. (2007) Nature Protocol 2 (5):1044). […] The plate was read on Cellomics (SN: 04080019LH; P/N no 1-0117) using target activation protocol to calculate the percentage of MBP+ cells to reflect the differentiation of OPCs.

`CC1=CCC[C@H]1NC(=O)Nc1ccc(Cl)c(S(=O)(=O)[C@@]2(C)CCOC2)c1O` [Compound 195, 1-(4-chloro-2-hydroxy-3-(((S)-3-methyltetrahydrofuran-3-yl)sulfonyl)phenyl)-3-((R)-2-methylcyclopent-2-en-1-yl)urea]: the IC50 in assay [1] was 0.0398 µM; in assay [2] (Oligodendrocyte precursor cell, read-out: pIC50 (OPC differentiation assay) (converted)), 6.31 µM. Also, the OPC differentiation entry in assay [2] is listed as “promote OPC differentiation”.
